Values of other authors in patent US7037523B2, “Controlled release compositions for macrolide antimicrobial agents” (Wockhardt Limited, priority 2001, dated 2006).

Experiments:
[1] = normal gastric pH of 1.0–2.0

solubility in water: practically insoluble
degradation in acidic medium [1]: degrades rapidly
SMILES: CC[C@H]1OC(=O)[C@H](C)[C@@H](O[C@H]2C[C@@](C)(OC)[C@@H](O)[C@H](C)O2)[C@H](C)[C@@H](O[C@@H]2O[C@H](C)C[C@H](N(C)C)[C@H]2O)[C@](C)(OC)C[C@@H](C)C(=O)[C@H](C)[C@@H](O)[C@]1(C)O [Clarithromycin]
